Experimental data: patent US20060063791A1, “(Spirocyclylamido)aminothiophene compounds” (priority 2004, published 2006)
Structures can show the parent of a compound that is named as a salt.

What was measured:
[1] = target: T1, wild-type c-Kit receptor protein endogenously expressed in H526 cells (Homo sapiens, UniProt P10721); assay: Assay for inhibition of c-Kit in intact cells (C-KIT H526 cell assay, ELISA of SCF-stimulated tyrosine phosphorylation); assay type: cell-based; conditions: 3 h compound pre-incubation, SCF stimulation 15 min, read-out: IC50 (concentration of compound that inhibits SCF-induced tyrosine phosphorylation of the c-Kit protein by 50%)
T1 construct: wild-type c-Kit receptor protein that is endogenously expressed in H526 cells; endogenous in cells; host or cells: H526 (ATCC # CRL-5811), human small cell lung cancer
Experimental: C-KIT H526 Cell Assay Protocol
I. Assay for Inhibition of c-Kit in Intact Cells
The ability of compounds to inhibit the tyrosine kinase activity of c-Kit was determined in a cell-based ELISA assay using the H526 cell line (ATCC # CRL-5811), which was originally derived from a human small cell lung cancer. The assay determines the ability of compounds to block ligand-stimulated tyrosine phosphorylation of the wild-type c-Kit receptor protein that is endogenously expressed in H526 cells. Cells are pre-incubated with compounds at various concentrations prior to addition of stem cell factor (SCF), the ligand for the c-Kit receptor tyrosine kinase. Cell lysates are then prepared and the c-Kit protein is captured onto a c-Kit antibody-coated 96-well ELISA plate. The phosphotyrosine content of the receptor protein is then monitored by quantitation of the degree of binding of an antibody that recognizes only the phosphorylated tyrosine residues within the captured protein. The antibody used has a reporter enzyme (e.g. horseradish peroxidase, HRP) covalently attached, such that binding of antibody to phosphorylated c-Kit can be determined quantitatively by incubation with an appropriate HRP substrate.
Cell Lysis Buffer: • 50 mM Tris-HCl, pH 7.4 • 150 mM NaCl • 10% Glycerol • 1% Triton X-100 • 0.5 mM EDTA • 1 μg/mL leupeptin • 1 μg/mL aprotinin • 1 mM Sodium orthovanadate
Anti c-Kit Antibody: • 0.5 μg/mL anti c-Kit Ab-3 (Lab Vision, catalog #MS289P1) in 50 mM Sodium bicarbonate, pH 9.
ELISA Assay Plates: • ELISA assay plates are prepared by addition of 100 μL of anti c-Kit antibody to each well of a 96-well Microlite-2 plate (Dynex, catalog # 7417), followed by incubation at 37° C. for 2 h. The wells are then washed twice with 300 μL wash buffer.
Plate Wash Buffer: • PBS containing 0.5% Tween-20 (PBST)
Cell Assay Medium: • RPMI with 0.1% BSA
pY20-HRP: • 25 ng/mL pY20-HRP (Calbiochem, catalog # 525320) in PBS, containing 0.5% Tween-20, 5% BSA, 1 mM Sodium orthovanadate
HRP Substrate: • Chemoluminescent detection reagent (Pierce, catalog # 37075)
Cultures of H526 cells, growing in RPMI with 10% fetal calf serum, were collected by centrifugation, washed twice with PBS, and suspended in cell assay medium. Cells were then distributed into a V-bottom 96-well plate at 7.5×10^4 cells per well in 100 μL cell assay medium.
Compound dilutions were prepared from 10 mM DMSO stocks by dilution in cell assay medium, the final concentration of DMSO in the assay being 0.1%. To compound incubation wells, 50 μL of the test compound was added (compounds are assayed at concentrations between 0.1 nM and […]); to positive and negative control wells, 50 μL cell assay medium containing 0.1% DMSO was added. The cells were then incubated with compound at 37° C. for 3 h. SCF (R&D Systems, catalog #255-SC-010) was then added in order to stimulate the c-Kit receptor and induce its tyrosine phosphorylation. Then, 10 μL of a 1.6 μg/mL solution of SCF in cell assay medium was added to all wells apart from the negative control wells, and the cells were incubated for an additional 15 min at 37° C. Following the addition of ice-cold PBS, the plate was centrifuged at 1000 rpm for 5 min, the medium removed by aspiration, and the cell pellet lysed by the addition of 120 μL ice-cold cell lysis buffer per well. The plate was kept on ice for 20 min and 100 μL of the cell lysates from each well were then transferred to the wells of an ELISA assay plate and incubated at 4° C. for 16 h.
Following incubation of the cell lysates in the ELISA plate, the wells were washed 4 times with 300 μL wash buffer, then 100 μL of the phosphotyrosine detection antibody pY20-HRP was added to each well and the plate incubated at rt for 2 h. The wells were then washed 4 times with 300 μL wash buffer. Then, 50 μL of the chemiluminescent HRP substrate was added to each well for luminometric quantitation of the amount of antiphosphotyrosine-HRP conjugate bound to the plate. […]

[2] = system: MO7e human leukemia cells; conditions: cited from earlier work
[3] = system: MO7e human leukemia cells; conditions: cited from earlier work; remark: listed apart in the source

T1 sequence (P10721 26-976): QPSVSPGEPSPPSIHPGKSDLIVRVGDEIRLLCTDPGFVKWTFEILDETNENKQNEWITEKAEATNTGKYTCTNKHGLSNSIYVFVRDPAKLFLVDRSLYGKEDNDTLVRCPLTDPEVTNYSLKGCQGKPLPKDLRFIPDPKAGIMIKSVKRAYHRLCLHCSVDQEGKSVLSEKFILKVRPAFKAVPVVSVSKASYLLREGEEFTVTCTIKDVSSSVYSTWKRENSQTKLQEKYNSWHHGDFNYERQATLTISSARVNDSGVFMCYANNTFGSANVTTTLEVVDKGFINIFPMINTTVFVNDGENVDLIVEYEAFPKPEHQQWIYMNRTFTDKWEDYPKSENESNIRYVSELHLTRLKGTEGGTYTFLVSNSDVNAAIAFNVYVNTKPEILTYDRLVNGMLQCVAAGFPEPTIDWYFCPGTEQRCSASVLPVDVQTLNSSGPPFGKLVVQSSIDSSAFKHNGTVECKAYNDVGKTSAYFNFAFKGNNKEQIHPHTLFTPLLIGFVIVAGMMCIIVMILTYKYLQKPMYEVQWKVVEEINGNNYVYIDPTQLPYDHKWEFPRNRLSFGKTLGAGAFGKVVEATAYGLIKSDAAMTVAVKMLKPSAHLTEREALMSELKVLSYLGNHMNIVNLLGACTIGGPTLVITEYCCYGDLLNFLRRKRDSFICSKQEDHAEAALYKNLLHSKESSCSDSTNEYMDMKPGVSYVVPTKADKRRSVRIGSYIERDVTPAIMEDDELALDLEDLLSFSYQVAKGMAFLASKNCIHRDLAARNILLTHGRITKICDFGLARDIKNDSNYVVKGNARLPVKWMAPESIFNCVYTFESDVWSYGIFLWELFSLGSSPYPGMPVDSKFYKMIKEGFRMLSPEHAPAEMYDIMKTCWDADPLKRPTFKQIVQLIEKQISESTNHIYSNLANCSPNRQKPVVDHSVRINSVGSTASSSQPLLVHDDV

SMILES	IC50 [1]	also measured
CN1CCN[C@]2(CC[C@@H](NC(=O)c3sccc3NCc3ccnc4ccccc34)CC2)C1=O [Compound 1, cis-N-(4-Methyl-5-oxo-1,4-diazaspiro[5.5]undec-9-yl)-3-[(quinolin-4-ylmethyl)amino]thiophene-2-carboxamide]	> 15 µM	
O=C(N[C@H]1CC[C@@]2(CC1)CC(=O)N(Cc1ccccc1)N2)c1sccc1NCc1ccnc2ccccc12 [Compound 2, cis-N-(2-Benzyl-3-oxo-1,2-diazaspiro[4.5]dec-8-yl)-3-[(quinolin-4-ylmethyl)amino]thiophene-2-carboxamide]	> 15 µM	
O=C(NC1CCC2(CC1)NC(=O)N(Cc1ccccc1)C2=O)c1sccc1NCc1ccnc2ccccc12 (stereo not drawn) [Compound 3, N-(3-Benzyl-2,4-dioxo-1,3-diazaspiro[4.5]dec-8-yl)-3-[(quinolin-4-ylmethyl)amino]thiophene-2-carboxamide]	> 15 µM	
O=C1NC(=O)C2(CCC(NC(=O)c3sccc3NCc3ccnc4ccccc34)CC2)N1 (stereo not drawn) [Compound 4, N-(2,4-Dioxo-1,3-diazaspiro[4.5]dec-8-yl)-3-[(quinolin-4-ylmethyl)amino]thiophene-2-carboxamide]	> 15 µM	
Cc1csc(C(=O)NC2CCC3(CC2)NC(=O)N(CCC(C)C)C3=O)c1NCc1ccnc2ccccc12 (stereo not drawn) [Compound 5, N-[3-(3-Methylbutyl)-2,4-dioxo-1,3-diazaspiro[4.5]dec-8-yl]-4-methyl-3-[(quinolin-4-ylmethyl)amino]thiophene-2-carboxamide]	> 15 µM	
O=C(Nc1ccc2c(c1)C1(CCN(C(=O)OCc3ccccc3)CC1)CN2)c1sccc1NCc1ccnc2ccccc12 [Compound 6]	> 15 µM	
Cc1ccc(NC(=O)c2ccc(CN3CCN(C)CC3)cc2)cc1Nc1nccc(-c2cccnc2)n1 [Gleevec, imatinib mesylate]		apoptosis ([2]; Kit ligand-stimulated conditions): induces apoptosis; Kit ligand-stimulated growth ([2]; Kit ligand-stimulated): inhibited; GM-CSF stimulated growth [3]: not affected
